In patent US10799499B2, “Combinatorial therapies of neurological disorders” (PHARNEXT, priority 2016, dated 2020):

Columns and labels:
[1] = test system: primary cortical neuron cells; assay: Toxicity of human Aβ1-42 peptide on primary cortical neuron cells (MAP2 antibody labelling); assay type: cell-based, rat; details: combinations versus drugs used alone at the same doses
Method: Effect on the Toxicity of Human Aβ1-42 Peptide on Primary Cortical Neuron Cells.
Culture of Primary Cortical Neurons
Rat cortical neurons are cultured as described by Singer et al.. Briefly pregnant female rats of 15 days gestation were killed by cervical dislocation (Rats Wistar) and the foetuses were removed from the uterus. The cortex was removed and placed in ice-cold medium of Leibovitz (L15) containing 2% of Penicillin 10.000 U/ml and Streptomycin 10 mg/ml and 1% of bovine serum albumin (BSA). Cortices were dissociated by trypsin for 20 min at 37° C. (0.05%). The reaction was stopped by the addition of Dulbecco's modified Eagle's medium (DMEM) containing DNase 1 grade II and 10% of fetal calf serum (FCS). Cells were then mechanically dissociated by 3 serial passages through a 10 ml pipette and centrifuged at 515×g for […] at +4° C. The supernatant was discarded and the pellet of cells was re-suspended in a defined culture medium consisting of Neurobasal supplemented with B27 (2%), L-glutamine (0.2 mM), 2% of PS solution and 10 ng/ml of BDNF. Viable cells are counted in a Neubauer cytometer using the trypan blue exclusion test. The cells are seeded at a density of 30 000 cells/well in 96 well-plates (wells were pre-coated with poly-L-lysine (10 μg/ml)) and are cultured at +37° C. in a humidified air (95%)/CO2 (5%) atmosphere.
Three independent cultures are performed per condition, 6 wells per condition.
Test compounds and Human Amyloid-β1-42 Treatment
Briefly, Aβ1-42 peptide is reconstituted in define culture medium at 40 μM (mother solution) and was slowly shaken at +37° C. for 3 days in dark. The control medium is prepared in the same conditions.
After 3 days, the solution is used on primary cortical neurons as follows.
After 10 days of neuron culture, test compounds and combinations thereof are solved in culture medium (+0.1% DMSO) and then pre-incubated with neurons for one hour before the Aβ1_42 application (in a final volume per culture well of 100 μl). One hour after test compound(s) incubation, 100 μl of Aβ1-42 peptide is added to a final concentration of 10 μM diluted in presence of drug(s), in order to avoid further test compound(s) dilutions. Cortical neurons are intoxicated for 24 h. Three separate cultures are performed per condition, 6 wells per condition.
BDNF (50 ng/ml) is used as positive control. Three separate cultures are performed per condition, 12 wells per condition.
MAP2 Antibody Labelling Assay
24 hours after intoxication, the cell culture supernatant is taken off and the cortical neurons are fixed by a cold solution of ethanol (95%) and acetic acid (5%) for 5 min at −20° C. After permeabilization with 0.1% of saponin, cells are incubated for 2 h with mouse monoclonal antibody anti microtubule-associated-protein 2 (MAP-2; Sigma) at dilution of 1/400 in PBS containing 1% fetal calf serum and 0.1% of saponin (this antibody stains specifically cell bodies and neurites, allowing study of both the neurite network and cell death). […] For each condition, 30 pictures per well are taken using InCell Analyzer™ 1000 (GE Healthcare) with 20× magnification. All images are taken with the same conditions. Analysis of total neurite network and number of neurons is performed automatically by using Developer software (GE Healthcare).
Data are expressed in percentage of control conditions (no intoxication, no amyloid=100%) in order to express the amyloid injury. All values are expressed as mean+/−SEM (s.e.mean) of the 3 cultures (n=6 wells per condition). Statistical analyses are done on the different conditions (one-way ANOVA followed by the Dunnett's test when it is allowed, Statview software version 5.0).

[2] = test system: Male Swiss mice; assay: Spontaneous alternation in the Y-maze (spatial working memory) in mice injected ICV with Aβ25-35; assay type: in vivo, mouse; details: oral gavage Day 0 to Day 10, quinoline 1 mg/Kg once a day, baclofen 480 μg/Kg and acamprosate 32 μg/Kg twice a day, test at Day 8
Method: (§1) The peptide amyloid-β25-35 (Aβ25-35) is the hydrophobic part of the full-length amyloid peptide. Injection of this peptide in the brain ventricles of rodents is known to induce a progressive neurodegenerative processes resulting in cognitive impairments. This model is commonly used for diseases involving cognitive impairment symptoms.
(§2) Male Swiss mice were administered from Day 0 to Day 10 with sham product (group 1 and 2); 3-phenylsulfonyl-8-(piperazin-1-yl) quinoline (group 3); baclofen and acamprosate (group 4); or 3-phenylsulfonyl-8-(piperazin-1-yl) quinoline, baclofen and acamprosate (group 5).
(§3) 3-phenylsulfonyl-8-(piperazin-1-yl) quinoline) was administered orally by gavage once a day (1 mg/Kg of the individual body weight of each mouse.
(§4) A composition of baclofen and acamprosate was administered orally by gavage twice a day (respectively 480 μg/Kg and 32 μg/Kg of the individual body weight of each mouse).
(§5) At Day 1, oligomeric Aβ25-35 peptide was injected ICV (intracerebroventricular) to provoke amyloid toxicity (group 2, 3, 4 and 5). […]
Animals were tested for spontaneous alternation performance in the Y-maze, an index of spatial working memory. […] The number of maximum alternations was therefore the total number of arm entries minus two and the percentage of alternation was calculated as (actual alternations/maximum alternations)×100. […]

[3] = test system: Male Swiss mice; assay: Step-through passive avoidance test (contextual long-term memory) in mice injected ICV with Aβ25-35; assay type: in vivo, mouse; details: oral gavage Day 0 to Day 10, quinoline 1 mg/Kg once a day, baclofen 480 μg/Kg and acamprosate 32 μg/Kg twice a day, retention at Day 10
Method: as §1, §2, §3, §4, §5
All animals were tested for passive avoidance performance, an index of contextual long-term memory. […] The step-through latency, that is, the latency spent to enter the darkened compartment, and the number of vocalizations were recorded. […] The step-through latency was recorded up to 300 s.

Question: What does the source list for `O=S(=O)(c1ccccc1)c1cnc2c(N3CCNCC3)cccc2c1` [3-phenylsulfonyl-8-(piperazin-1-yl) quinoline]?
Answer: protective effect on neuronal cells against Aβ1-42 toxicity [1]: no or a marginal protective effect; effect on the impairment of cognitive function induced by Aβ(25-35), Y-maze [2]: did not show any significant effect; effect on the impairment of cognitive function induced by Aβ(25-35), step-through passive avoidance [3]: did not show any significant effect

Question: How did the “protective effect on neuronal cells against Aβ1-42 toxicity” value (“protective effect on neuronal cells” for short) [1] turn out when `CC(=O)NCCCS(=O)(=O)O` [acamprosate] was run?
Answer: no or a marginal protective effect

Question: For `NCC(CC(=O)O)c1ccc(Cl)cc1` (centres unmarked) [baclofen], which “protective effect on neuronal cells” value [1] is on record?
Answer: no or a marginal protective effect

Question: For `CC12CC3CC(C)(C1)CC(N)(C3)C2` [memantine], which “protective effect on neuronal cells” value [1] is on record?
Answer: no or a marginal protective effect

Question: Which “protective effect on neuronal cells” value [1] does the source give for `CCN(C)C(=O)Oc1cccc([C@H](C)N(C)C)c1` [rivastigmine] here?
Answer: no or a marginal protective effect

Question: `Nc1c2c(nc3ccccc13)CCCC2` [tacrine] was tested. Which “protective effect on neuronal cells” value [1] did it give?
Answer: no or a marginal protective effect
